Assay results taken from PubChem BioAssay AID2060363 (Molecular Pharmacology Branch, DTP, NCI, 2025).
pIC50: −log10 of the molar value. Values joined by “and” are separate entries in the source; they are usually repeats but may differ in a detail not shown here. Identical values can stand only once. One block for each compound: values may come before it.

Tested on: 156681-154-R-J1-PDC tumor spheroids, viability % test/control
Assay: Anticancer human tumor 156681-154-R-J1-PDC patient-derived melanoma cell line growth inhibition [TAK]
Details: spheroids with HUVEC and MSC; for viability, T/C: stronger effect = lower value
Text: Combinatorial screen of targeted agents with TAK-243 and ipatasertib in multi-cell type tumor spheroids
A high-throughput screen of multi-cell type tumor spheroids was designed to identify active combinations of targeted small molecules and TAK-243 or ipatasertib. Complex spheroids include a stromal component modeled by human endothelial cells (HUVEC) and fibroblasts modeled by human mesenchymal stem cells (MSCs). The concentration ranges selected for each drug and investigational agent were based upon clinically achievable concentrations if the clinical Cmax of the agent was known.
Compounds. The drugs and investigational agents: TAK-243 (785004), ipatasertib (767898), everolimus (733504), selumetinib (741078), bortezomib (756655), trametinib (758246), ixazomib (758254), vemurafenib (761431), dabrafenib (764134), sapanisertib (764658), alpelisib (765974), and copanlisib (816437), were obtained from the National Cancer Institute (NCI) Developmental Therapeutics Program Chemical Repository. The FDA-approved anticancer drug set is available from the NCI Developmental Therapeutics Program. […] The stock solutions were prepared in dimethyl sulfoxide (DMSO, Sigma-Aldrich, St. Louis, MO, cat. D2650) at 800-fold the tested concentration and stored at -70 degrees C prior to their use. All drugs and investigational agents were tested over a range starting from a high concentration at or near the clinical Cmax and decreasing in half-log increments. If the clinical Cmax for an agent had not been determined, the highest concentration tested was 10 microM.
NCI60 Cell Culture. NCI60 cell lines were obtained from the NCI Developmental Therapeutics Program Tumor Repository. For each lot of cells, the Repository performed Applied Biosystems AmpFLSTR Identifiler testing with PCR amplification to confirm consistency with the published Identifier STR profile for each cell line. Cells were kept in continuous culture for no more than 20 passages. The optimal seeding densities for each of the cell lines at each time point assessed were determined prior to performing the concentration response studies. Briefly, the NCI60 human tumor lines were grown as monolayers in RPMI 1640 medium supplemented with 10% FBS and 2 mmol/L L-glutamine.
An additional 2 lines were from the NCI60 cell line panel including melanomas, MALME-3M and SK-MEL-2. Pooled donor human umbilical vein endothelial cells (HUVEC, Lonza, cat. CC-2519) and human mesenchymal stem cells (hMSC, Lonza, cat. PT-2501) were purchased from Lonza (Walkersville, MD).
PDMR cell lines were grown in complete medium (DC medium): Dulbecco's modified Eagle's medium (DMEM)/F12 supplemented with 5% fetal bovine serum (FBS), 2 mM L-glutamine, 100 U/mL penicillin and 100 µg/ml streptomycin, 0.4 µg/ml hydrocortisone, 10 ng/ml epidermal growth factor (EGF) recombinant human protein, 24 µg/mL adenine, and 0.1 mg/mL primocin. During culture from frozen stock vials, PDMR cells were cultured in the same medium containing 10 µM Y-27632 (see Table 3). The PDCs were cultured in complete DMEM/F12 media without 10 microM Y-27632 dihydrochloride for at least two passages prior to the screen. The pooled donor HUVEC and hMSC were cultured in endothelial cell growth medium 2 (PromoCell, Heidelberg, Germany, cat. C-22011) and mesenchymal stem cell growth medium 2 (PromoCell, cat. C-28009), respectively. For all experiments, HUVEC and hMSC were used at passages </=5.
For the pre-screen, cell seeding densities were determined from a titration spanning the range from 5,000 to 313 cells per well. The mct-spheroids including 60% malignant cells, 25% HUVEC and 15% MSC dispensed as a mixture into U-bottom Ultra-Low Attachment 384-well plates (Corning, NY)
High-throughput Drug Combination Screening.
Prior to their inoculation into 384-well plates, malignant cells, HUVEC, and hMSC were removed from T flasks using TrypLE express (Thermo Fisher Scientific, cat. 12605036) and harvested by centrifugation for 5 min at 233 x g. […]
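Further: spheroids exposed to compounds for 7 days before the endpoint.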

pIC50 (curve of compound): 7.71 and 7.75
SMILES: CC(C)CC(NC(=O)CNC(=O)c1cc(Cl)ccc1Cl)B1OC(=O)CC(CC(=O)O)(C(=O)O)O1 (stereo unspecified)
viability, T/C (compound 0.000316 µM): 104% and 94.9%
viability, T/C (compound 0.001 µM): 101% and 104%
viability, T/C (compound 0.00316 µM): 99.5% and 101%
viability, T/C (compound 0.01 µM): 95.7% and 90.9%
viability, T/C (compound 0.0316 µM): 18.1% and 10.3%
viability, T/C (compound 0.1 µM): 0.44% and 0.46%

SMILES: COc1c(OCCCN2CCOCC2)ccc2c3n(c(=NC(=O)c4cnc(N)nc4)nc12)CCN3 + CC(C)NCC(C(=O)N1CCN(c2ncnc3c2C(C)CC3O)CC1)c1ccc(Cl)cc1
pIC50 (curve of first compound, second compound 0.3 µM): 7.18
pIC50 (curve of first compound, second compound 0.949 µM): 7.29
pIC50 (curve of first compound, second compound 3 µM): 7.77
pIC50 (curve of first compound, second compound 9.49 µM): > 8.50
pIC50 (curve of first compound, second compound 30 µM): > 8.50
viability, T/C (second compound 0.3 µM, first compound 0.00316 µM): 94.6%
viability, T/C (second compound 0.3 µM, first compound 0.01 µM): 91.4%
viability, T/C (second compound 0.3 µM, first compound 0.0316 µM): 70.6%
viability, T/C (second compound 0.3 µM, first compound 0.1 µM): 38.3%
viability, T/C (second compound 0.3 µM, first compound 0.316 µM): 11.3%
viability, T/C (second compound 0.3 µM, first compound 1 µM): 2.36%
viability, T/C (second compound 0.949 µM, first compound 0.00316 µM): 86.7%
viability, T/C (second compound 0.949 µM, first compound 0.01 µM): 85.1%
viability, T/C (second compound 0.949 µM, first compound 0.0316 µM): 61%
viability, T/C (second compound 0.949 µM, first compound 0.1 µM): 33.3%
viability, T/C (second compound 0.949 µM, first compound 0.316 µM): 6.84%
viability, T/C (second compound 0.949 µM, first compound 1 µM): 1.52%
viability, T/C (second compound 3 µM, first compound 0.00316 µM): 67.4%
viability, T/C (second compound 3 µM, first compound 0.01 µM): 56.6%
viability, T/C (second compound 3 µM, first compound 0.0316 µM): 40.7%
viability, T/C (second compound 3 µM, first compound 0.1 µM): 21.7%
viability, T/C (second compound 3 µM, first compound 0.316 µM): 3.81%
viability, T/C (second compound 3 µM, first compound 1 µM): 1.29%
viability, T/C (second compound 9.49 µM, first compound 0.00316 µM): 30.9%
viability, T/C (second compound 9.49 µM, first compound 0.01 µM): 35.9%
viability, T/C (second compound 9.49 µM, first compound 0.0316 µM): 18.5%
viability, T/C (second compound 9.49 µM, first compound 0.1 µM): 9.13%
viability, T/C (second compound 9.49 µM, first compound 0.316 µM): 2.36%
viability, T/C (second compound 9.49 µM, first compound 1 µM): 1.24%
viability, T/C (second compound 30 µM, first compound 0.00316 µM): 13.6%
viability, T/C (second compound 30 µM, first compound 0.01 µM): 11.5%
viability, T/C (second compound 30 µM, first compound 0.0316 µM): 6.36%
viability, T/C (second compound 30 µM, first compound 0.1 µM): 3.28%
viability, T/C (second compound 30 µM, first compound 0.316 µM): 0.7%
viability, T/C (second compound 30 µM, first compound 1 µM): 0.29%

pIC50 (curve of compound): 8.28 and 8.36
SMILES: CC(=O)Nc1cccc(-n2c(=O)n(C3CC3)c(=O)c3c(Nc4ccc(I)cc4F)n(C)c(=O)c(C)c32)c1
viability, T/C (compound 94.9 pM): 102% and 101%
viability, T/C (compound 0.0003 µM): 105% and 111%
viability, T/C (compound 0.000949 µM): 100% and 102%
viability, T/C (compound 0.003 µM): 83.8% and 66.8%
viability, T/C (compound 0.00949 µM): 15.5% and 14.8%
viability, T/C (compound 0.03 µM): 8.87% and 8.9%

pIC50 (curve of compound): 6.11 and 6.16
SMILES: Cn1cnc2c(F)c(Nc3ccc(Br)cc3Cl)c(C(=O)NOCCO)cc21
viability, T/C (compound 0.00949 µM): 95.4% and 99.5%
viability, T/C (compound 0.03 µM): 92.4% and 89.7%
viability, T/C (compound 0.0949 µM): 97.8% and 89.7%
viability, T/C (compound 0.3 µM): 93.4% and 95.4%
viability, T/C (compound 0.949 µM): 41.3% and 32.8%
viability, T/C (compound 3 µM): 13% and 12.3%
